Assay results: patent US20140329863A1 (priority 2011, published 2014)
Where two headings read alike, the source gives them in different places.

Experiments:
ScN2a-c13 cells = experiment: cells; format: cell-based; conditions: Mus musculus; N=3; read-out: EC50 by calcein for cell viability
[1] = Single-dose pharmacokinetics in FVB mice (oral gavage, IV); conditions: for Brain exposure (AUClast) ranking: single oral dose, FVB mice
[2] = […]
[3] = Hepatic microsomal stability, dog; format: in vitro ADME; conditions: for half-life at 1 μM: beagle, liver microsomes, pH 7.4
Procedure: These were diluted 500-fold into 1 mL of microsomal incubation mixture to yield a final concentration of 1 μM. The incubation mixture was composed of 100 mM phosphate buffer, pH 7.4, and NADPH regenerating system (BD Biosciences NADPH Regenerating System Solutions A & B). This mixture was preincubated at 37° C. for 5 min in an Eppendorf Thermo mixer, and the reaction initiated by addition of 0.5 mg (25 μl of a 20 mg/mL solution) of liver microsomes. Aliquots (100 μl) were withdrawn at 0, 5, 15, 30, and 60 min, and added to […] ACN containing internal standard. […] The percentage of solute remaining at the end of the incubation was used to determine species-specific values of scaled intrinsic clearance, hepatic clearance, and predicted hepatic extraction based upon the calculations below (Obach, 1999).
for which mg microsomal protein/gm liver was 45 for all species, and gm liver/kg body weight were 32 for dog, 88 for mouse, 40 for rat and 25 for human.
for which ER estimates the amount of compound cleared during a single pass through the liver (Low ER <0.3, moderate ER 0.3-0.7, high ER>0.7).

[4] = Multiple-dose (three-day) pharmacokinetic studies in FVB mice, drug in liquid diet; format: in vivo, mouse; conditions: for concentration at 3 days: FVB, mouse, oral
Procedure: Aminothiazole analog (e.g., 4.5 g of 27) was added to 15 mL of pure PEG400, vortexed and sonicated to ensure dissolution, then stored at −4° C. until needed. This highly concentrated PEG400 solution was subsequently diluted to final dosing concentrations, where the volume added was composed of homogenized solid rodent feed, cocoa (taste masking agent), and water. Wild-type FVB mice weigh ˜25 gm and typically drink 20 mL of liquid diet per day, allowing an estimate of daily drug consumption. A single dosing cohort consisted of three mice in a shared cage and liquid diet was provided at the start of the study in sufficient volume to last for the entire three-day trial (˜200 mL). At the end of the three-day dosing period, animals were euthanized by CO2, followed by collection of plasma (cardiac puncture) and removal of whole brain. Heparinized blood was centrifuged to separate plasma and both plasma and brain samples were stored at −80° C. prior to analysis. Plasma samples were prepared for analysis by precipitating proteins and reconstituting the remaining fraction with HPLC mobile phase. Brain samples were typically prepared by four-fold dilution with water after weighing, then homogenized using bead-beater or Polytron™ resulting in a highly concentrated solution that was further diluted with mobile phase as appropriate in preparation for bioanalytical analysis using LC-MS. Analysis was by LC-MS (Shimadzu dual-HPLC pumps, C18 analytical column, with detection using an Applied Biosystems API-4000 triple quadrupole mass spectrometer).
Ten compounds were selected from among the 34 2-AMTs for three-day multiple-dose PK studies at PO doses ranging from 40-210 mg/kg. Selection was based on diversity in potency, chemical structure, and a range of physicochemical properties. We used a liquid diet to facilitate easy drug administration, as well as serve as the daily source of all water and food. This approach was chosen because the mouse bioassay studies that would be used to assess drug effects on survival would be expected to run for 110 to 400 days, or more; gavage dosing for such a long period is not feasible and more stressful to mice. For the multiple-dose PK studies, 4.5 g of the 2-AMT analogs was added to 15 mL of pure PEG400, vortexed and sonicated to ensure dissolution, then stored at −4° C. until needed. This highly concentrated PEG400 solution was subsequently diluted to final dosing concentrations and added to the rodent liquid diet, cocoa (taste-masking agent), and water.
Wild-type FVB mice weigh ˜25 g and typically drink 20 mL of liquid diet per day, allowing an estimate of daily drug consumption. A single dosing cohort consisted of three mice in a shared cage and liquid diet was provided at the start of the study in sufficient volume (˜200 mL) to last for the entire three-day period. At the end of the dosing period, animals were euthanized by CO2, followed by collection of plasma (cardiac puncture) and removal of whole brain. Samples were processed and stored as described above for the 10 mg/kg single-dose studies.
Plasma and brain homogenate samples were extracted using a protein-precipitation method and analyzed by specific LC/MS/MS methods developed for each compound dosed in vivo. The analytical method accuracy and precision were monitored by analyzing quality control (QC) samples that were prepared by the same methods as the plasma or brain homogenate samples. The brain and plasma concentration data were used to calculate the maximal concentration (Cmax), area under the concentration-time curve (AUClast), and absolute bioavailability (% F) by noncompartmental analysis with sparse sampling performed using Phoenix WinNonlin 6.1 software (Pharsight, Mountain View, Calif.).

in vitro = conditions: dog, MDCK-MDR1
P-gp (MDR1) = experiment: in vitro; conditions: dog, MDCK-MDR1
[5] = PO 40 mg/kg, brain, female FVB mice
[6] = female, FVB, mouse, brain and plasma, po, 10 mg/kg
[7] = female, FVB, mouse, brain, po, 40 mg/kg
[8] = female, FVB, mouse, brain/plasma, po, 40 mg/kg
[9] = female, FVB, mouse, plasma, iv, 1 mg/kg
[10] = female, FVB, mouse, plasma, iv, 1 mg/kg, t1/2, IV 1 mg/kg, female FVB mice
[11] = female, FVB, mouse, plasma, po, 10 mg/kg
[12] = female, FVB, mouse, plasma, po, 40 mg/kg
[13] = female, FVB, mouse, plasma, po, 40 mg/kg, t1/2, PO 40 mg/kg, female FVB mice
[14] = female dog microsomes, read-out: t1/2 Dog Female
[15] = brain, 3 days in liquid diet, 40, 80, 130, 210 mg/kg/day, read-out: brain concentration
[16] = plasma, 3 days in liquid diet, 40, 80, 130, 210 mg/kg/day, read-out: plasma concentration
[17] = male dog microsomes, read-out: t1/2 Dog Male
[18] = IV 1 mg/kg, plasma, female FVB mice

SMILES	EC50 (ScN2a-c13 cells) [µM]	AUClast [1, 5] [ng·h/g]	Cmax [1, 7] [ng/g]	Tmax [1, 7] [min]	Kp [1, 8]	AUC(0-t) [1, 12] [ng·h/mL]	Cmax [1, 12] [ng/mL]	Tmax [1, 12] [min]	half-life [1, 13] [min]	half-life at 1 μM [3, 14] [min]	hepatic extraction ratio (ER) [2]	Papp A→B (in vitro) [×10⁻⁶ cm/s]	Papp B→A (in vitro) [×10⁻⁶ cm/s]	efflux ratio (P-gp (MDR1))	also measured
Cc1cccc(Nc2nc(-c3ccc(-c4ccccc4)cc3)cs2)n1 [IND24, (4-Biphenyl-4-yl-thiazol-2-yl)-(6-methyl-pyridin-2-yl)-amine]	> 10	9998 ± 417	840 ± 252	240	2.61	3830 ± 450	569 ± 38.1	120	279	51					Kp [1, 6]: 2.6; AUC(0-t) [1, 9]: 953 ± 374 ng·h/mL; Cmax [1, 9]: 856 ± 908 ng/mL; Tmax [1, 9]: 4.98 min; half-life ([1]; female, FVB, mouse, plasma, iv, 1 mg/kg, Half-life, 1 mg/kg IV, female FVB mice): 120 min; half-life [1, 10]: 129 min; bioavailability [1, 11]: 40%; bioavailability [1, 12]: 40.2%; Brain exposure (AUClast) ranking ([1]; brain): highest AUC values in brain; metabolic stability (in words) [2]: stable; half-life at 1 μM ([3]; male dog microsomes, * extrapolated, read-out: t1/2 Dog Male (extrapolated)): 140 min
Cc1ccc(Nc2nc(-c3cc(-c4ccccc4)no3)cs2)nc1 [IND33, (5-Methyl-pyridin-2-yl)-[4-(3-phenyl-isoxazol-5-yl)-thiazol-2-yl]-amine]											lower to moderate	6.8	8.3	1.2	concentration at 3 days ([4]; brain, 3 days in liquid diet, 130 mg/kg dose, read-out: brain concentration): ~30 µM
COc1ccc(-c2csc(Nc3ccc4ccccc4n3)n2)cc1OC [IND47, [4-(3,4-Dimethoxy-phenyl)-thiazol-2-yl]-quinolin-2-yl-amine]											lower to moderate	9.2	8.9	1	concentration at 3 days [4, 15]: ≤ 1 µM; concentration at 3 days [4, 16]: ≤ 1 µM
Cc1ccnc(Nc2nc(-c3ccncc3)cs2)c1 [IND52, (4-Methyl-pyridin-2-yl)-(4-pyridin-4-yl-thiazol-2-yl)-amine]	> 10										higher	36.2	48.7	1.3	brain concentration ([4]; 3 days in liquid diet, 40 mg/kg dose): no measurable brain concentrations
Cc1ccnc(Nc2nc(-c3ccc(-c4ccccn4)s3)cs2)c1 [IND81, (4-Methyl-pyridin-2-yl)-[4-(5-pyridin-2-yl-thiophen-2-yl)-thiazol-2-yl]-amine]	> 10	1592 ± 794	568 ± 186	30	5.53	288 ± 136	152 ± 10.6	30	58.2	26		16	20.9		Kp [1, 6]: 5.5; AUC(0-t) [1, 9]: 106 ± 12.4 ng·h/mL; Cmax [1, 9]: 183 ± 96.6 ng/mL; Tmax [1, 9]: 4.98 min; half-life [1, 10]: 70.2 min; bioavailability [1, 11]: 25 to 27%; bioavailability [1, 12]: 27.2%; Brain exposure (AUClast) ranking ([1]; brain): highest AUC values in brain; half-life at 1 μM [3, 17]: 23 min
c1ccc2cc(Nc3nc(-c4ccncc4)cs3)ncc2c1 [IND85, Isoquinolin-3-yl-(4-pyridin-4-yl-thiazol-2-yl)-amine]											higher	3.03	4.44	1.5	Brain Cmax/EC50 ratio, 40 mg/kg ([1]; single oral dose 40 mg/kg): better Cmax:EC50 ratio at either dose; concentration at 3 days [4, 15]: ≤ 1 µM; concentration at 3 days [4, 16]: ≤ 1 µM
C(=N\Nc1ccc(-c2cnco2)cc1)/c1ccncc1 [IND54304, reference compound]		282 ± 27.2	123 ± 42.7	120	0.52	544 ± 16.8	220 ± 99.4	30	60	16					AUClast [1, 18]: 219 ± 33.0 ng·h/mL; Cmax [1, 18]: 466 ± 37.4 ng/mL; Tmax [1, 18]: 4.98 min; t1/2 [1, 18]: 12.6 min; % F ([1]; PO 40 mg/kg vs IV 1 mg/kg, plasma, female FVB mice): 24.8%; brain concentration as multiple of EC50 ([4]; 3 days in liquid diet, 100 mg/kg/day): ~20 ×EC50; concentration at 3 days ([4]; brain, 3 days in liquid diet, 100 mg/kg/day, read-out: brain concentration): ~10 µM; half-life at 1 μM [3, 17]: 20 min; Hepatic Extraction Ratio Dog Female ([3]; female dog microsomes): 0.80; Hepatic Extraction Ratio Dog Male ([3]; male dog microsomes): 0.79
